Source: ChEMBL document CHEMBL1153102, “Synthesis and antiproliferative activity of pyrrolo[3,2-b]pyridine derivatives against melanoma” (Bioorg Med Chem Lett, 2010)
pIC50: −log10 of the molar value.

Legend:
[1] = Cytotoxicity against human A375P cells by MTT assay; format: functional, cell-based
HS27 = test: Cytotoxicity against human HS27 cells by MTT assay; format: cell-based

For `COC(=O)c1ccc2c(ccn2-c2ccc(NC(=O)c3cc(N4CCOCC4)cc(C(F)(F)F)c3)cc2)n1`, the pIC50 [1] was < 5.00 and the pIC50 (HS27) was < 5.00.
Compound `O=C(Nc1ccc(-n2ccc3nc(C(=O)NCc4ccccc4)ccc32)cc1)c1ccc(Cl)c(C(F)(F)F)c1` has a pIC50 [1] of 6.15 and a pIC50 (HS27) of 5.82.
In the case of `NC(=O)c1ccc2c(ccn2-c2ccc(NC(=O)Nc3ccc(Cl)c(Cl)c3)cc2)n1`, the pIC50 [1] was 5.49 and the pIC50 (HS27) was 5.18.
With `NC(=O)c1ccc2c(ccn2-c2ccc(NC(=O)Nc3ccc(Cl)c(C(F)(F)F)c3)cc2)n1` the pIC50 [1] was 5.00 and the pIC50 (HS27) was < 5.00.
With `O=C(Nc1ccc(-n2ccc3nc(C(=O)NCc4ccccc4)ccc32)cc1)c1cccc(C(F)(F)F)c1` the pIC50 [1] was 5.52 and the pIC50 (HS27) was < 5.00.
In the case of `COC(=O)c1ccc2c(ccn2-c2ccc(NC(=O)Nc3ccc(Cl)c(Cl)c3)cc2)n1`, the pIC50 [1] was 5.42 and the pIC50 (HS27) was 5.55.
In the case of `COC(=O)c1ccc2c(ccn2-c2ccc(NC(=O)c3ccc(Cl)c(C(F)(F)F)c3)cc2)n1`, the pIC50 [1] was 5.52 and the pIC50 (HS27) was 5.54.
In the case of `O=C(Nc1ccc(-n2ccc3nc(C(=O)NCc4ccccc4)ccc32)cc1)c1cc(N2CCOCC2)cc(C(F)(F)F)c1`, the pIC50 [1] was < 5.00 and the pIC50 (HS27) was < 5.00.
`O=C(Nc1ccc(-n2ccc3nc(C(=O)NCc4ccccc4)ccc32)cc1)c1ccc(N2CCOCC2)c(C(F)(F)F)c1` showed a pIC50 [1] of 6.05 and a pIC50 (HS27) of 5.59.
For `COC(=O)c1ccc2c(ccn2-c2ccc(NC(=O)c3ccc(N4CCOCC4)c(C(F)(F)F)c3)cc2)n1`, the pIC50 [1] was 5.01 and the pIC50 (HS27) was < 5.00.
In the case of `COC(=O)c1ccc2c(ccn2-c2cccc(NC(=O)c3ccc(Cl)c(C(F)(F)F)c3)c2)n1`, the pIC50 [1] was < 5.00 and the pIC50 (HS27) was < 5.00.
Compound `COC(=O)c1ccc2c(ccn2-c2ccc(NC(=O)Nc3ccc(Cl)c(C(F)(F)F)c3)cc2)n1` has a pIC50 [1] of 5.44 and a pIC50 (HS27) of 5.09.
For `O=C(Nc1ccc(-n2ccc3nc(C(=O)NCc4ccccc4)ccc32)cc1)Nc1cccc(Cl)c1Cl`, the pIC50 [1] was < 5.00 and the pIC50 (HS27) was < 5.00.
`NC(=O)c1ccc2c(ccn2-c2ccc(NC(=O)Nc3cccc(Cl)c3Cl)cc2)n1` showed a pIC50 [1] of 5.34 and a pIC50 (HS27) of 5.01.
For `COC(=O)c1ccc2c(ccn2-c2ccc(NC(=O)Nc3cccc(Cl)c3Cl)cc2)n1`, the pIC50 [1] was 5.19 and the pIC50 (HS27) was < 5.00.
For `COC(=O)c1ccc2c(ccn2-c2cccc(NC(=O)Nc3cccc(C(F)(F)F)c3)c2)n1`, the pIC50 [1] was < 5.00 and the pIC50 (HS27) was < 5.00.
With `NC(=O)c1ccc2c(ccn2-c2ccc(NC(=O)c3cccc(C(F)(F)F)c3)cc2)n1` the pIC50 [1] was < 5.00 and the pIC50 (HS27) was < 5.00.
Compound `O=C(Nc1ccc(-n2ccc3nc(C(=O)NCc4ccccc4)ccc32)cc1)Nc1ccc(Cl)c(C(F)(F)F)c1` has a pIC50 [1] of 5.96 and a pIC50 (HS27) of 5.52.
With `O=C(Nc1ccc(-n2ccc3nc(C(=O)NCc4ccccc4)ccc32)cc1)Nc1cccc(C(F)(F)F)c1` the pIC50 [1] was 5.10 and the pIC50 (HS27) was < 5.00.
In the case of `COC(=O)c1ccc2c(ccn2-c2cccc(NC(=O)Nc3ccc(Cl)c(C(F)(F)F)c3)c2)n1`, the pIC50 [1] was 5.02 and the pIC50 (HS27) was < 5.00.
In the case of `NC(=O)c1ccc2c(ccn2-c2ccc(NC(=O)c3ccc(Cl)c(C(F)(F)F)c3)cc2)n1`, the pIC50 [1] was 5.05 and the pIC50 (HS27) was < 5.00.
`COC(=O)c1ccc2c(ccn2-c2ccc(NC(=O)c3cccc(C(F)(F)F)c3)cc2)n1` gave a pIC50 [1] of 5.02 and a pIC50 (HS27) of 5.01.
With `COC(=O)c1ccc2c(ccn2-c2cccc(NC(=O)c3cccc(C(F)(F)F)c3)c2)n1` the pIC50 [1] was < 5.00 and the pIC50 (HS27) was < 5.00.
`CNC(=O)c1cc(Oc2ccc(NC(=O)Nc3ccc(Cl)c(C(F)(F)F)c3)cc2)ccn1` [SORAFENIB] gave a pIC50 [1] of 5.25.
